In publication PMC10982501, “Synthesis and biological evaluation of novel benzothiazole derivatives as potential anticancer and antiinflammatory agents” (Frontiers in Chemistry, 2024):

Assays:
[1] = Oil-water partition coefficient (log P) measurement; type: physicochemical; details: n-octanol/water, room temperature
Protocol: The partition coefficient between n-octanol and water (log Po/w) is the classical descriptor for Lipophilicity ([Daina et al., 2017]). The test methodology followed previously published protocols ([Wang et al., 2021]). At room temperature, two large Erlenmeyer flasks were taken and filled with n-octanol and water, respectively. The flasks were placed in a constant temperature shaker at 150 rpm for 24 h to saturate the solvents. The mixtures were then transferred to separating funnels under normal pressure to obtain water-saturated n-octanol and n-octanol-saturated water for subsequent use. The target compound (2 mg) was accurately weighed and placed in a 2 mL brown volumetric flask. Anhydrous methanol was added to ultrasonically dissolve the compound, and the mixture was diluted to volume and thoroughly shaken to prepare a 1 mg/mL stock solution. The stock solution was further diluted to obtain 1, 1.5, 2, 2.5, 5 and 10 μg/mL reference solutions for construction of a standard curve using a UV-visible spectrophotometer. An excess amount of the analyte was dissolved in water-saturated n-octanol, and the mixture was shaken at 150 rpm for 24 h at constant temperature to obtain a saturated solution. The saturated solution was allowed to stand, centrifuged, and 1 mL of the supernatant was transferred to a 4 mL centrifuge tube. N-octanol saturated water (1 mL) was added, and the mixture was shaken at 150 rpm for 24 h at constant temperature. After standing for 8 h, the mixture was centrifuged. Appropriate amounts of the n-octanol phase before and after equilibration were diluted with methanol, and concentrations were determined from the standard curve to obtain C0 and C1. The concentration in the n-octanol saturated aqueous phase, Cw, was calculated as Cw = C0 - C1. Thus, log Po/w = […].

A431 cells = experiment: MTT cell proliferation assay, A431; type: cell-based, human; details: for inhibition at 10 µM / IC50: Homo sapiens, A-431, 48 h; for inhibition at 10 µM: read-out: A431 cells inhibition rate; for inhibition at 10 µM / A431 cells inhibition rate: 10 μM; for A431 cells inhibition rate: 48 h; for IC50: read-out: IC50 (mean ± SD) A431
Protocol: (§1) Beas-2b, A431, A549 and H1299 cells were cultured in 96-well plates (5 × 10^3 cells/well) for 16 h, respectively. Subsequently, positive compound 4i and 25 newly synthesized compounds were added at a final concentration of 10 μM or gradient concentrations (0.01, 0.1, 0.5, 1, 5 and 10 μM), co-incubated with the cells for 48 h. MTT (M8180, Solarbio) solutions (5 mg/mL) were then added and incubated for 4 h in the dark. Then, formazan crystals were dissolved with DMSO (D8371, Solarbio), followed by shaking on a shaker (DRAGONLAB, China) for 10 min. Finally, absorbance at 490 nm wavelength for each well was measured with Microplate reader (Molecular Devices, United States) ([Tang et al., 2020]; [Lee et al., 2021]). The results are expressed as mean ± SD from three independent experiments. Cells inhibition rates or IC50 values were calculated using GraphPad Prism 9.5.0.

A549 cells = experiment: MTT cell proliferation assay, A549; type: cell-based, human; details: for inhibition at 10 µM / IC50: Homo sapiens, A549, 48 h; for inhibition at 10 µM: read-out: A549 cells inhibition rate; for inhibition at 10 µM / A549 cells inhibition rate: 10 μM; for A549 cells inhibition rate: 48 h; for IC50: read-out: IC50 (mean ± SD) A549
Protocol: as §1

H1299 cells = experiment: MTT cell proliferation assay, H1299; type: cell-based, human; details: for inhibition at 10 µM / IC50: Homo sapiens, NCI-H1299, 48 h; for inhibition at 10 µM: read-out: H1299 cells inhibition rate; for inhibition at 10 µM / H1299 cells inhibition rate: 10 μM; for H1299 cells inhibition rate: 48 h; for IC50: read-out: IC50 (mean ± SD) H1299
Protocol: as §1

Beas-2b cells = experiment: MTT cell proliferation and toxicity assay, Beas-2b; type: cell-based, human; details: 48 h; for inhibition at 10 µM: Homo sapiens, BEAS-2B, read-out: Beas-2b cells inhibition rate
Protocol: as §1

SMILES | logP [1] | IC50 (A431 cells) [µM] | IC50 (A549 cells) [µM] | IC50 (H1299 cells) [µM] | log P [1] | inhibition at 10 µM (A431 cells) [%] | inhibition at 10 µM (A549 cells) [%] | inhibition at 10 µM (H1299 cells) [%] | inhibition at 10 µM (Beas-2b cells) [%] | A431 cells inhibition rate (A431 cells) [%] | A549 cells inhibition rate (A549 cells) [%] | H1299 cells inhibition rate (H1299 cells) [%] | Beas-2b cells inhibition rate (Beas-2b cells; 10 μM) [%]
COc1cc(CNc2nc3ccc(Cl)cc3s2)cc(OC)c1 [B6, 6-chloro-N-(3,5-dimethoxybenzyl)benzo[d]thiazol-2-amine] | 3.36 ± 0.18 | – | – | – | – | 43.4 ± 1.61 | 35.2 ± 2.86 | 32.8 ± 0.74 | 20.6 ± 1.32 | – | – | – | –
Fc1cccc(CNc2nc3ccc(Cl)cc3s2)c1 [B5, 6-chloro-N-(3-fluorobenzyl)benzo[d]thiazol-2-amine] | 3.58 ± 0.11 | 10.8 ± 0.56 | 5.44 ± 1 | 9.26 ± 1.34 | – | > 50 | > 50 | > 50 | 20.6 ± 1.85 | 59.69 ± 3.62 | 58.64 ± 1.01 | 51.34 ± 3.03 | –
c1ccc(COc2ccccc2-c2nc3ccccc3s2)cc1 [A7, 2-(2-(benzyloxy)phenyl)benzo[d]thiazole] | 3.95 ± 0.15 | – | – | – | – | 15.3 ± 2.21 | 12.2 ± 3.42 | 26.5 ± 1.11 | 11.4 ± 2.65 | – | – | – | –
Fc1ccc2nc(NCCc3ccccc3)sc2c1 [B1, 6-fluoro-N-phenethylbenzo[d]thiazol-2-amine] | 3.47 ± 0.27 | – | – | – | – | 21.1 ± 2.03 | 18.3 ± 0.93 | 26.3 ± 0.91 | 23.1 ± 1.52 | – | – | – | –
O=[N+]([O-])c1ccc(COc2ccccc2-c2nc3ccccc3s2)cc1 [A4, 2-(2-((4-nitrobenzyl)oxy)phenyl)benzo[d]thiazole] | 3.74 ± 0.35 | – | – | – | – | 35.8 ± 1.02 | 33.3 ± 1.36 | 39.4 ± 1.2 | 10.3 ± 0.64 | – | – | – | –
Cc1ccc(COc2ccccc2-c2nc3ccccc3s2)cc1 [A6, 2-(2-((4-methylbenzyl)oxy)phenyl)benzo[d]thiazole] | 4.72 ± 0.28 | – | – | – | – | 27.7 ± 1.62 | 20.7 ± 2.31 | 33.9 ± 0.68 | 15.1 ± 3.28 | – | – | – | –
O=[N+]([O-])c1ccc(CNc2nc3ccc(F)cc3s2)cc1 [B4, 6-fluoro-N-(4-nitrobenzyl)benzo[d]thiazol-2-amine] | 2.67 ± 0.25 | – | – | – | – | 24.3 ± 1.87 | 19.6 ± 1.32 | 25 ± 1.62 | 21.4 ± 2.21 | – | – | – | –
Fc1ccc2nc(NCc3c(Cl)cccc3Cl)sc2c1 [B2, N-(2,6-dichlorobenzyl)-6-fluorobenzo[d]thiazol-2-amine] | 4.25 ± 0.16 | – | – | – | – | 27.5 ± 2.42 | 30.2 ± 2.13 | 31.3 ± 1.14 | 18.6 ± 1.67 | – | – | – | –
N#Cc1ccc(COc2ccccc2-c2nc3ccccc3s2)cc1 [A8, 4-((2-(benzo[d]thiazol-2-yl)phenoxy)methyl)benzonitrile] | 3.44 ± 0.22 | – | – | – | – | 28.6 ± 1.24 | 24.4 ± 1.22 | 37.3 ± 2.3 | 14.2 ± 3.65 | – | – | – | –
O=C1c2ccccc2C(=O)N1CCCOc1ccccc1-c1nc2ccccc2s1 [A3, 2-(3-(2-(benzo[d]thiazol-2-yl)phenoxy)propyl)isoindoline-1,3-dione] | 3.63 ± 0.16 | – | – | – | – | 34.2 ± 1.15 | 28.5 ± 2.21 | 30.9 ± 0.77 | 5.25 ± 0.39 | – | – | – | –
Clc1cccc(COc2ccccc2-c2nc3ccccc3s2)c1 [A5, 2-(2-((3-chlorobenzyl)oxy)phenyl)benzo[d]thiazol] | 4.51 ± 0.24 | – | – | – | – | 45.7 ± 0.87 | 47.6 ± 1.24 | 35.3 ± 2.24 | 18.2 ± 2.23 | – | – | – | –
Clc1ccc2nc(NCc3ccccc3)sc2c1 [B8, N-benzyl-6-chlorobenzo[d]thiazol-2-amine] | 3.56 ± 0.16 | 5.36 ± 1 | 6.25 ± 0.99 | 6.69 ± 0.54 | – | > 50 | > 50 | > 50 | 18.1 ± 3.22 | 57.43 ± 3.64 | 65.75 ± 0.96 | 55.22 ± 2.49 | –

More lines, main results first:

logP [1] | IC50 (A431 cells) [µM] | IC50 (A549 cells) [µM] | IC50 (H1299 cells) [µM] | log P [1] | SMILES | inhibition at 10 µM (A431 cells) [%] | inhibition at 10 µM (A549 cells) [%] | inhibition at 10 µM (H1299 cells) [%] | inhibition at 10 µM (Beas-2b cells) [%] | A431 cells inhibition rate (A431 cells) [%] | A549 cells inhibition rate (A549 cells) [%] | H1299 cells inhibition rate (H1299 cells) [%] | Beas-2b cells inhibition rate (Beas-2b cells; 10 μM) [%]
– | – | – | – | 2.93 ± 0.11 | O=C(Nc1nc2ccc(F)cc2s1)c1c(Cl)cccc1Cl [C2, 2,6-dichloro-N-(6-fluorobenzo[d]thiazol-2-yl) benzamide] | – | – | – | – | 5.61 ± 0.26 | 0.27 ± 0.12 | 6.80 ± 0.22 | 12.82 ± 1.76
3.06 ± 0.23 | – | – | – | – | O=C(Nc1nc2ccc(F)cc2s1)c1ccc([N+](=O)[O-])cc1 [C4, N-(6-fluorobenzo[d]thiazol-2-yl)-4-nitrobenzamide] | 43.1 ± 1.45 | 35.3 ± 1.82 | 45.2 ± 0.55 | 13.4 ± 1.65 | – | – | – | –
2.56 ± 0.14 | – | – | – | – | O=C(Nc1nc2ccc(F)cc2s1)c1ccccc1 [C1, N-(6-fluorobenzo[d]thiazol-2-yl)benzamide] | 17.5 ± 1.35 | 19.3 ± 1.07 | 28.3 ± 1.25 | 16.3 ± 1.82 | – | – | – | –
2.49 ± 0.39 | – | – | – | – | COc1ccc(C(=O)Nc2nc3ccc(F)cc3s2)cc1OC [C3, N-(6-fluorobenzo[d]thiazol-2-yl)-3,4-dimethoxybenzamide] | 12.3 ± 1.51 | 4.38 ± 0.35 | 18 ± 2.52 | 21.3 ± 1.62 | – | – | – | –
5.69 ± 0.25 | – | – | – | – | COc1cc(CN(Cc2cc(OC)cc(OC)c2)c2nc3ccc(Cl)cc3s2)cc(OC)c1 [D1, 6-chloro-N,N-bis(3,5-dimethoxybenzyl)benzo[d]thiazol-2-amine] | 38.7 ± 1.56 | 15.4 ± 3.46 | 32.7 ± 1.25 | 19.3 ± 1.31 | – | – | – | –
3.05 ± 0.17 | 8.4 ± 1.06 | 8.17 ± 0.4 | 9.02 ± 0.37 | – | O=C(Nc1nc2ccc(Cl)cc2s1)c1ccccc1 [C6, N-(6-chlorobenzo[d]thiazol-2-yl)benzamide] | > 50 | > 50 | > 50 | 20.6 ± 0.52 | 57.73 ± 2.12 | 55.56 ± 2.78 | 59.72 ± 1.84 | –
